Experimental data taken from patent US4339390A, “Preferential immunoreactivity of syn-isomer of cortisol derivative” (Abbott Laboratories, priority 1981, dated 1982).

Test system: cortisol antibodies (antisera to cortisol-3-carboxymethyloxime-BSA)
Assay: competitive radioimmunoassay, binding affinity curves on antibody-coated polystyrene beads
Design: species or system rabbit
Experimental: Female rabbits were immunized subcutaneously at multiple sites with 1 mg of cortisol-3-CMO-BSA conjugate, prepared according to method of example 1, in saline emulsified with complete Freund's adjuvant (Difco Laboratories, Detroit, Michigan) on weeks 1, 2, 3 and 4 with booster injections of […] of the immunogen being given at longer intervals according to the antibody titer. Blood was collected from the marginal ear vein after three months of immunization. The serum was harvested and frozen for future use.
Into appropriately labeled 12×75 mm plastic tubes containing polystyrene beads coated with cortisol antibodies generated according to this disclosure, was added 25 μl of standard serum, followed by 300 μl of radioactive assay solution containing a mixture of borate buffered saline, pH 8.8; 0.12% Triton X 100 and approximately 0.25 ng/ml of either the syn, anti or racemic mixture of ^125 I labeled tyrosine methyl ester derivative of cortisol-21-acetate-3-carboxymethyloxime. The reaction mixture was incubated with agitation at room temperature for one hour. The liquid contents of the tubes were aspirated and the radioactivity bound to the antibody coated beads was counted. The percent bound versus cortisol concentration was plotted. […] Knowing this preference, it would be advantageous in terms of sensitivity and specificity to employ only the syn isomer in assays for the determination of cortisol in biological fluids.

Q: COC(=O)[C@H](Cc1ccc(O)c([125I])c1)NC(=O)CO/N=C1\C=C2CC[C@@H]3[C@H]([C@@H](O)C[C@@]4(C)[C@H]3CC[C@]4(O)C(=O)COC(C)=O)[C@@]2(C)CC1 [I^125 syn isomer] was tested. Which “affinity of antibody for labeled antigen conjugate (percent bound versus cortisol concentration)” value (approx. 0.25 ng/ml tracer, room temperature, one hour, borate buffered saline pH 8.8, compared with anti isomer and racemic mixture) did it give?
A: demonstrably greater affinity

Q: And the “affinity constant calculated from slope of standard curves (FIG. 1)” value (compared with I^125 -anti-isomer and I^125 -mixture (syn and anti))?
A: highest

Q: And the “immunoavidity of antisera for the labeled isomer” value (compared with labeled anti-isomer and racemic mixture)?
A: significant preference in immunoavidity

Q: What about the “sensitivity of the antibody for the labeled isomer (FIG. 1)” value (standard curves) of the same molecule?
A: increased sensitivity
